The source of these data is patent US10472355B2, “Cancer treatment utilizing SP-141 to bind with MDM2 and act as an inhibitor of MDM2 expression” (Texas Tech University System, priority 2014, dated 2019).

Data set [1] has as its system MCF-7 xenograft tumors. As to the kind of experiment: MCF-7 xenograft tumor model in nude mice. Format: in vivo. As for the experimental part: (§1) As evidence, SP-141 was administered to nude mice bearing MCF-7 and MDA-MB-468 xenograft tumors. SP-141 was administered by intraperitoneal (i.p.) injection at doses of 40 mg/kgn 1 per day for 42 and 30 days, respectively.
(§2) FIGS. 13-16 are presented to illustrate that. SP-141 suppresses breast xenograft tumor growth in vivo. FIGS. 13A and 13B illustrate tumor mass in nude mice bearing MCF-7 and MDA-MB-468, respectively. The xenograft tumors were treated with SP-141, which was administered by i.p. injection at 40 mg/kg 1 per day, 5 days per week for 42 and 30 days, respectively. FIGS. 14A and 14B illustrate the tumors after they were removed at the end of the experiments. The mice were also monitored for changes in body weight as a surrogate marker for toxicity in both the MCF-7 (as shown in FIG. 15A) and MDA-MB-468 (as shown if FIG. 15B) xenograft models. At the termination of the experiments, H&E staining of the paraffin sections of some organs from the mice bearing MCF-7 xenograft tumors was performed. (Mean±s.e.m., n>10 for each data point, two-sided Student's t-test, *P<0.01).

For data set [2], the system named is MDM2 protein. Nature of the data set: Western blot of MDM2 expression in breast cancer cells. Format: cell-based, human. Particulars: multiple tested cell lines. The method, then:
SP-141 also effects MDM2 expression. […] In the MCF-7 (p53 wt) cells, the wild-type p53 protein level increased, in accordance with an expected inhibition of MDM2. […] SP-141 increases the expression of cleaved PARP and Bax and decreases the expression of Bcl-2 and Cyclin E in a p53-independent manner.
(§3) FIGS. 8-12 are presented toillustrate that SP-141 induces breast cancer cell death. In experiments conducted by the inventors, cells were exposed to various concentrations of SP-141 for 72 hours, using the MTT assay to evaluate the cell viability and IC50 value. FIG. 9 provides a photograph of such exposure for 24 hours using the colony formation assay. FIG. 10A illustrates a chart associated with 48 hours for the apoptosis assay and FIG. 10B illustrates a similar chart associated with 24 hours for the proliferation assay. FIG. 11 illustrates 24 hour for the cell cycle distribution assay. FIG. 12 illustrates a western blot analysis of the expression of MDM2 and proteins related to apoptosis and cell cycle arrest in human breast cancer cells. All these assays were performed in triplicate, and all the experiments were repeated at least three times (mean±s.e.m., n=9 for each data point, two-sided Student's t-test. *Po 0.01).
For orientation: Immunoblotting shows a protein as a band on a membrane.

For data set [3], the system named is MDA-MB-468 xenograft tumors. As to the kind of experiment: MDA-MB-468 xenograft tumor model in nude mice. Format: in vivo. Particulars: i.p. 40 mg/kg per day. The method, then: as §1, §2
The subject of data set [4] is MDA-MB-231-Luc breast cancer cells. As to the kind of experiment: Experimental metastasis assay. The data set is classed as in vivo, nude mice. Particulars: i.p. 20 mg/kg per day for 2 weeks; days 8 and 15. As for the experimental part: To validate the anti-metastatic effects of SP-141 in vivo, an experimental metastasis assay can be performed. MDA-MB-231-Luc breast cancer cells can be intravenously injected into a tail vein of nulnu mice. The animals are randomly divided into a treatment group and a control group after cell injection. SP-141 can be administered by i.p injection at doses of 20 mg/kg, 1 per day for 2 weeks.
(§4) FIGS. 28-30 are provided to illustrate that SP-141 inhibits cell metastasis in vitro and in vivo. MDA-MB-231 cells were grown to confluence in a six-well plate, illustrated in FIG. 28. A scratch was made at experimental time zero, and then the cells were exposed to various concentrations of SP-141. The wells were imaged at different time points. All the experiments were repeated at least three times. The effects of SP-141 on the expression of EMT-related proteins in MDA-MB-231 cells is shown in the western blot analysis provided in FIG. 29. About 1×10^ 6 MDA-MB-231-Luc cells were intravenously injected into a tail vein of nude mice. SP-141 was administered by i.p. injection at doses of 20 mg kg, 1 per day, 5 days per week for 2 weeks. The luciferase signals in the mice were detected and photographed using an MS in vivo image system on days 1, 8, and 15, as shown in FIG. 30.

The test system of data set [5] is MDM2 protein in MCF-7 and MDA-MB-468 cells. As to the kind of experiment: MDM2 protein degradation (cycloheximide chase, western blot). Particulars: 0.5 mM SP-141 24 hours, then cycloheximide. The data set is classed as cell-based, human. The method, then: SP-141 can also induce MDM2 protein degradation. Specifically. SP-141 can induce MDM2 inhibition in vitro and in vivo. […] The p53 protein was stabilized in MCF-7 cells, but not in the p53 mt […] cells.
MCF-7 and MDA-MB-468 cells were treated with SP-141 (0.5 mM), and then exposed to cycloheximide (CHX, 15 mg ml 1), an inhibitor of protein synthesis. The graphs in FIG. 20 show the quantification of the western blot data. Cells were treated with SP-141 (0.5 mM) for 24 hours, and then exposed to a proteasome inhibitor, MG 132 (25 mM), for an additional 6 hours. The protein levels of MDM2 were detected with western blot analysis, as illustrated in FIG. 21. Further, cells were transfected with MDM2 and ubiquitin plasmids, followed by treatment with SP-141 for 24 hours. The cells were then exposed to MG132 (25 mM) for an additional 6 hours, and the lysates were subjected to immunoprecipitation with an MDM2 antibody. Cells were transfected with a wild-type MDM2 plasmid or mutant MDM2 plasmid without E3 ligase activity (C464A). After treatment with SP-141 for 24 hours, MDM2 levels were detected with western blot analysis, as illustrated in FIG. 23. Representative images of MDM2 immunofluorescence in control and SP-141 (1 mM)-treated cells are illustrated in FIG. 24. B-actin and DAPI were used as internal references. All the experiments were repeated three times.

Data set [6] concerns MDA-MB-231 human breast cancer cells. Nature of the data set: Wound healing assay (cell migration). Format: cell-based. Particulars: 0.1 or 0.2 mM SP-141, MDA-MB-231 cells. As for the experimental part:
SP-141 inhibits cell migration in vitro and in vivo. A crucial component of tumor cell invasion is cell migration. A wound healing assay can be used to investigate the effect of SP-141 on cancer cell motility, using MDA-MB-231 human breast cancer cells. The cells can be treated with the vehicle, or with 0.1 or 0.2 mM of SP-141, in order to evaluate the cell migration into the wound made in the cell monolayer.
as §4

Data set [7] concerns p53 wt MCF-7 cells. As to the kind of experiment: Apoptosis assay. The settings on record: 1-mM SP-141, 48 hours. Format: cell-based, human. The method, then:
as §3

Data set [8] relates to p53 KO MCF-7 cells. As to the kind of experiment: Apoptosis assay. Format: cell-based, human. The settings on record: 1-mM SP-141, 48 hours. As for the experimental part: as §3
The test system of data set [9] is p53 mt MDA-MB-468 cells. Nature of the data set: Apoptosis assay. Format: cell-based, human. The settings on record: 1-mM SP-141, 48 hours. The method, then: as §3
For data set [10], the target named is T1, MDM2 protein (Homo sapiens, UniProt Q00987). As to the kind of experiment: Biacore assay (MDM2 immobilized on CM5 sensor chip). The settings on record: read-out: KD for binding to the MDM2 protein. The source says: (§5) The reduction is proportional to dose. Thus, SP-141 can occupy the p53-binding site on MDM2 as illustrated by FIG. 6. […] Thus, SP-141 serves as a specific MDM2 inhibitor with a high binding capacity for the MDM2 protein.
T1 sequence (Q00987 whole entry): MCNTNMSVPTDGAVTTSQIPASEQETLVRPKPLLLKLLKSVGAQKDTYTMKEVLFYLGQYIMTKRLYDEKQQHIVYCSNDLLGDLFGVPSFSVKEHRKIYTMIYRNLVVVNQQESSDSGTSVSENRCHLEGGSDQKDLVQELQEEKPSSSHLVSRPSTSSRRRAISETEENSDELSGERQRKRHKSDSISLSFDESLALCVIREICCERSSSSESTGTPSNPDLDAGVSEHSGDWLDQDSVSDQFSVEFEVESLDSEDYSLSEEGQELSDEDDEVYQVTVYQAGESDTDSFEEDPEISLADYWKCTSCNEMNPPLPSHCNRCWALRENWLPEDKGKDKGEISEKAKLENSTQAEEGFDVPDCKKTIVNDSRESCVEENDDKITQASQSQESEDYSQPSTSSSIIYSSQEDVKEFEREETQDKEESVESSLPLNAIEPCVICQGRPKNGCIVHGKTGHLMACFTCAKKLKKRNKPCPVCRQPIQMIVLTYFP
(§6) FIG. 7A illustrates a chart illustrating % inhibition. This is illustrative of competitive binding to recombinant human MDM2 proteins using an FP-based binding assay. […] Similarly, FIG. 7B illustrates a chart or responses illustrative of competitive KD values of SP-141 to MDM2 as determined using the Biacore assay. The MDM2 protein was immobilized on a CM5 sensor chip. […] It is noteworthy that all the assays were performed in triplicate, and all the experiments were repeated at least three times.
(In general: In SPR one partner is held on a chip, and binding of the other changes the refractive index at the surface.)

Data set [11] concerns the target T1, MDM2 protein. Nature of the data set: FP-based competitive binding assay.
Description: as §5, §6

In data set [12] the test system is human breast cancer cell lines. Nature of the data set: Cell cycle distribution assay. The data set is classed as cell-based. Also on record: dose or concentration left out as unconfirmed. The settings on record: 24 hours. As for the experimental part: (§7) MDA-MB-468 cells are more sensitive to SP-141 treatment at higher concentrations than MCF-7 and MCF-7 p53 KD cells.
as §3

For data set [13], the system named is breast cancer cell lines. As to the kind of experiment: Colony formation assay. The data set is classed as cell-based, human. The settings on record: 24 hours exposure. As for the experimental part:
as §3

Data set [14] has as its system MCF-7 cells (both p53 wt and p53 KD). Nature of the data set: Proliferation assay. Format: cell-based, human. Particulars: 0.5-mM concentration, 24 hours. The method, then: as §7, §3
Data set [15] addresses GST-MDM2 (Homo sapiens, UniProt Q00987). Nature of the data set: Biotin-avidin pull-down assay with biotinylated SP-141. The settings on record: biotin-SP-141 conjugate, avidin beads; purified GST negative control. Format: binding. The source says: As illustrated in FIGS. 2 and 3.
A western blot analysis is illustrated in FIG. 5. […] Purified GST was used as a negative control. The bound protein was detected using anti-MDM2 and anti-GST antibodies.
The bound protein was detected using anti-MDM2 antibody.

GST-MDM2, sequence (Q00987 whole entry): as above

A word on the Kd: it is a measure of binding affinity in units of concentration. For orientation: Ki means a measure of affinity in units of concentration, obtained from inhibition or displacement. `COc1ccc2[nH]c3c(-c4cccc5ccccc45)nccc3c2c1` [SP-141, 6-methoxy-1-(naphthalen-1-yl)-9 H-pyrido[3,4-b]indole]: the “Host toxicity monitored by changes in body weight” value is given as “no significant host toxicity” in data set [1] (MCF-7 model, i.p. 40 mg/kg per day, 42 days) and “no significant host toxicity” in data set [3] (MDA-MB-468 model, 30 days). Moreover, the “Inhibition of xenograft tumor growth” value in data set [1] (MCF-7 xenograft, i.p. 40 mg/kg per day, day 42) came to 82%; in data set [3] (MDA-MB-468 xenograft, day 30) it was 80%. The “Organ abnormalities at necropsy / histological examination” value in [1] (mice bearing MCF-7 xenograft tumors, 40 mg/kg per day) is recorded as “no gross organ (liver, lung, kidney, spleen, heart or brain) abnormalities”. Besides, the MDM2 protein levels result in [2] is listed as “decrease in a concentration-dependent manner”. For the same compound, the “Effect on metastasis (luciferase signals in lung tissues)” value in data set [4] was “decreases the metastasis of breast cancer cells”. In addition, the “Degradation rate of the MDM2 protein” value in data set [5] is recorded as “increased the degradation rate of the MDM2 protein”. In [6], the “Effect on cell migration into the wound” value is “significantly decreased the cell migration”. For the same compound, the figures for the “Increase of apoptotic index” value in [7], in [8] and in data set [9] were 14 fold, 7 fold and 11 fold, respectively. Further, the equilibrium dissociation constant (Kd) in data set [10] was determined as 43 nM. In [11], affinity was put at a Ki of 28 ± 6 nM. Moreover, in [12], the “Effect on cell cycle” value was “induces cell cycle arrest in the G2 phase”. Moreover, the “Effect on cancer cell colony formation” value in [13] is “inhibit cancer cell colony formation in a concentration-dependent manner”. Moreover, the “Effect on cell proliferation” value in [14] is listed as “significant decrease in proliferation”. The “Binding to MDM2 versus GST (pull-down)” value in data set [15] is reported as “binds to MDM2, but not GST”.
